Conditions: for mass density: 283.24 K, Fluid (supercritical or subcritical phases), Vibrating tube method; for vapor or sublimation pressure: Liquid, Closed cell (Static) method

FC(F)=C(F)C(F)(F)F [hexafluoropropene]
Conditions | mass density [kg/m3] | vapor or sublimation pressure [kPa]
114 kPa | 7.35 | –
116.4 kPa | 7.51 | –
118.8 kPa | 7.66 | –
121.1 kPa | 7.8 | –
123.6 kPa | 8.03 | –
126.1 kPa | 8.11 | –
128.5 kPa | 8.33 | –
131 kPa | 8.54 | –
133.4 kPa | 8.66 | –
135.9 kPa | 8.94 | –
140.7 kPa | 9.1 | –
143.2 kPa | 9.36 | –
145.7 kPa | 9.54 | –
148.1 kPa | 9.69 | –
150.6 kPa | 9.83 | –
153 kPa | 9.99 | –
155.6 kPa | 10.24 | –
158.1 kPa | 10.37 | –
160.5 kPa | 10.54 | –
163 kPa | 10.74 | –
165.1 kPa | 10.87 | –
167.6 kPa | 11.05 | –
170 kPa | 11.2 | –
172.5 kPa | 11.37 | –
176.6 kPa | 11.7 | –
179.2 kPa | 11.83 | –
181.6 kPa | 12.01 | –
184.2 kPa | 12.12 | –
186.6 kPa | 12.42 | –
190.9 kPa | 12.6 | –
193.4 kPa | 12.77 | –
195.9 kPa | 13.03 | –
198.4 kPa | 13.21 | –
203.3 kPa | 13.55 | –
205.8 kPa | 13.69 | –
208.3 kPa | 13.93 | –
210.8 kPa | 14.08 | –
213.3 kPa | 14.3 | –
215.8 kPa | 14.4 | –
218.3 kPa | 14.66 | –
220.8 kPa | 14.83 | –
223.3 kPa | 14.99 | –
225.7 kPa | 15.16 | –
228.2 kPa | 15.32 | –
230.7 kPa | 15.58 | –
233.2 kPa | 15.69 | –
235.7 kPa | 15.79 | –
238.2 kPa | 16.04 | –
240.7 kPa | 16.28 | –
243.2 kPa | 16.38 | –
245.6 kPa | 16.6 | –
248.1 kPa | 16.83 | –
250.7 kPa | 17.01 | –
253.2 kPa | 17.15 | –
255.6 kPa | 17.39 | –
258.1 kPa | 17.58 | –
260.5 kPa | 17.67 | –
263 kPa | 17.89 | –
265.5 kPa | 18.02 | –
268 kPa | 18.31 | –
270.4 kPa | 18.49 | –
272.9 kPa | 18.6 | –
275.4 kPa | 18.8 | –
277.9 kPa | 19.01 | –
280.5 kPa | 19.23 | –
283.1 kPa | 19.39 | –
286.3 kPa | 19.61 | –
288.21 K | – | 537.1
288.7 kPa | 19.79 | –
291.2 kPa | 19.98 | –
293.19 K | – | 625.9
293.7 kPa | 20.2 | –
296.1 kPa | 20.4 | –
298.22 K | – | 728.3
298.6 kPa | 20.56 | –
305.2 kPa | 21.07 | –
308.4 kPa | 21.36 | –
311.6 kPa | 21.56 | –
314.8 kPa | 21.85 | –
318.2 kPa | 22.13 | –
321.5 kPa | 22.28 | –
324.6 kPa | 22.54 | –
327.9 kPa | 22.87 | –
331.2 kPa | 23.12 | –
334.4 kPa | 23.37 | –
340.9 kPa | 23.85 | –
344.2 kPa | 24.11 | –
347.4 kPa | 24.4 | –
350.6 kPa | 24.64 | –
353.9 kPa | 24.84 | –
357.1 kPa | 25.07 | –
360.3 kPa | 25.34 | –
363.5 kPa | 25.56 | –
366.7 kPa | 25.93 | –
370 kPa | 26.15 | –
373.1 kPa | 26.37 | –
376.4 kPa | 26.74 | –
379.5 kPa | 26.94 | –
382.8 kPa | 27.24 | –
385.9 kPa | 27.44 | –
389.2 kPa | 27.66 | –
392.3 kPa | 27.96 | –
395.5 kPa | 28.23 | –
398.7 kPa | 28.48 | –
401.8 kPa | 28.77 | –
405 kPa | 28.98 | –
408.2 kPa | 29.26 | –
411.4 kPa | 29.53 | –
414.6 kPa | 29.77 | –
417.7 kPa | 30.05 | –
420.9 kPa | 30.37 | –
424 kPa | 30.54 | –
427.2 kPa | 30.81 | –
430.3 kPa | 31.07 | –
433.5 kPa | 31.39 | –
436.6 kPa | 31.7 | –
439.7 kPa | 31.9 | –
442.9 kPa | 32.26 | –
446 kPa | 32.45 | –
449 kPa | 32.73 | –
452.1 kPa | 32.99 | –
454.4 kPa | 33.16 | –
456.7 kPa | 33.3 | –
460.5 kPa | 33.77 | –
462.7 kPa | 33.86 | –
463.5 kPa | 34.04 | –
464.2 kPa | 34.05 | –
465 kPa | 34.18 | –
465.7 kPa | 34.33 | –
466.4 kPa | 34.49 | –
467.1 kPa | 34.74 | –
467.7 kPa | 35.03 | –
468.3 kPa | 35.5 | –
468.9 kPa | 35.71 | –

From the NIST ThermoML archive (doi:10.1021/je900596d)
